The source of these data is ChEMBL document CHEMBL3792292, “Development of a potent and selective FLT3 kinase inhibitor by systematic expansion of a non-selective fragment-screening hit” (Bioorg Med Chem Lett, 2016).

A word on the IC50: it is the concentration at which inhibition is half-maximal.

A value given as a limit tells only on which side of the number the result lay.

The target in the experiment is T1, Receptor-type tyrosine-protein kinase FLT3 (Homo sapiens, UniProt P36888).
T1 sequence (P36888 whole entry): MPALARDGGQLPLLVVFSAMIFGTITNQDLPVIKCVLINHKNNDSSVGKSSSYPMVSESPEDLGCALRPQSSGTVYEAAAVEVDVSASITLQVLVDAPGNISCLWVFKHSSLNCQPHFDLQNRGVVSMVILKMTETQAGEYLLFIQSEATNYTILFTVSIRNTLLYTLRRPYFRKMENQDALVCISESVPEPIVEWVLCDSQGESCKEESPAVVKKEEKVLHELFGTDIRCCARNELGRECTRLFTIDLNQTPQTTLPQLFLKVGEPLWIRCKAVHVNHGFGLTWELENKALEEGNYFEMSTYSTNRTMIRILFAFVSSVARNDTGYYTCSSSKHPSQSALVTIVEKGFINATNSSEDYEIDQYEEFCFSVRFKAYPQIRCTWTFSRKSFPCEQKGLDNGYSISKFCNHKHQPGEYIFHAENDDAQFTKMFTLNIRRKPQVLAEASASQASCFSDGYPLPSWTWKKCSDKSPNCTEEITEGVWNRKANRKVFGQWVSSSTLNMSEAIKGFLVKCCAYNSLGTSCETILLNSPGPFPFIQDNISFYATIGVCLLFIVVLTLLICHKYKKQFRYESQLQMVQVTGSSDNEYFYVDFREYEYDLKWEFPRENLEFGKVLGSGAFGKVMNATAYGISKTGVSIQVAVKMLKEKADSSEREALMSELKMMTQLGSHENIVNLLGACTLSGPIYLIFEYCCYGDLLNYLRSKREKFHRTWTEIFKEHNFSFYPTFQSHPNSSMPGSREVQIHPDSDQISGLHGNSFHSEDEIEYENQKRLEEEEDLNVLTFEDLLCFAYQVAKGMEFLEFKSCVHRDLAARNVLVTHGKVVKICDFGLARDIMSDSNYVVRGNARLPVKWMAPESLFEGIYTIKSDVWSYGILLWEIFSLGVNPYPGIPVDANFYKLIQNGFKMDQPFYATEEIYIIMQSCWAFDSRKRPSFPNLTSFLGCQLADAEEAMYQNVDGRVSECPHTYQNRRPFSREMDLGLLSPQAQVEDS
Nature of the experiment: Inhibition of human N-terminal GST-tagged FLT3 cytoplasmic domain (564 to 993 residues) expressed in baculovirus expression system using 5-FAM-peptide 2 as substrate after 2 hrs by electrophoretic mobility shift assay in presence of ATP.

As to `Cn1nc(C(=O)Nc2ccccc2)c2ccccc21`, the IC50 is greater than 2000 nM.
`COC(=O)c1ccccc1NC(=O)c1n[nH]c2ccccc12`: the IC50 was greater than 2000 nM.
As for `Cc1ccccc1NC(=O)c1n[nH]c2ccccc12`, the IC50 is greater than 2000 nM.
The same measure for `COc1ccc(NC(=O)c2n[nH]c3ccccc23)cc1`: 352 nM; for `COC(=O)c1cccc(NC(=O)c2n[nH]c3ccccc23)c1`: greater than 2000 nM; for `COc1ccccc1NC(=O)c1n[nH]c2ccccc12`: greater than 2000 nM.
With `O=C(Nc1ccccc1)c1c[nH]c2ccccc12`, the IC50 was greater than 2000 nM.
The figure for `O=C(Nc1ccc(N2CCN(c3ccccc3)CC2)cc1)c1n[nH]c2ccccc12` is greater than 2000 nM; for `CN(C(=O)c1n[nH]c2ccccc12)c1ccccc1` it is greater than 2000 nM.
